Assay results published in patent US5401743A, “Aminoalkyl-substituted 2-amino-5-mercaptothiadiazoles the preparation and use thereof” (BASF Aktiengesellschaft, priority 1991, dated 1995).
Where a name gives a salt, the structure may show the parent alone.

The compounds below were run against T1, dopamine D2 receptor (Rattus norvegicus, UniProt P61169) (assay: Receptor binding assay: affinity for the dopamine D2 receptor (3H-ADTN displacement, rat striatal membranes)). Conditions: not given.
T1 construct: Striata from rats (Sprague Dawley, Charles River) were homogenized immediately after removal; from tissue; host or cells: rat striatum (Sprague Dawley, Charles River), membranes
T1 sequence (P61169 whole entry): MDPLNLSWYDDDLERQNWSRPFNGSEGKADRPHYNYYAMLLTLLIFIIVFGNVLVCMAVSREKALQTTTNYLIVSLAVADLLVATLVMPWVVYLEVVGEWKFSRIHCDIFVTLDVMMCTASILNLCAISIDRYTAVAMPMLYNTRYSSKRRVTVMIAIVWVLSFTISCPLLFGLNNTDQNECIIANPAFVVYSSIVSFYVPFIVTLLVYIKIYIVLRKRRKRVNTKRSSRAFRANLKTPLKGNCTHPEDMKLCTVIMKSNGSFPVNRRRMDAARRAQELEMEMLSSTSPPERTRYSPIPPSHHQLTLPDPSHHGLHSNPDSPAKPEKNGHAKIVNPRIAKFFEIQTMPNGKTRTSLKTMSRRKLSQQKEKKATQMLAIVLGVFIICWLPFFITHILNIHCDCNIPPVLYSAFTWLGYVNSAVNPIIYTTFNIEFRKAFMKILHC
Parameters: species or system rat (Sprague Dawley)
Protocol: The effects of the novel compounds can be shown in the receptor binding assay as follows:
Striata from rats (Sprague Dawley, Charles River) were homogenized immediately after removal in 0.32M sucrose solution (0° C.). The homogenate was filtered through gauze, the filtrate was centrifuged at 1000 xg (5 min at 4° C.) and the resulting supernatant was centrifuged at 40000 xg (4° C., 10 min). The residue (membranes) was taken up in incubation buffer (50 mM tris-HCl, 1 mM MgCl2 and 0.1% ascorbic acid, pH 7.4) and incubated at 37° C. for 20 min. The residue was subsequently washed 2× with incubation buffer by resuspension and recentrifugation. The membranes were frozen in portions in liquid nitrogen.
The assay mixtures (1 ml) were composed of membranes (380 μg of protein), 1 nM ^3 H-ADTN (NEN, Dreieich Germany, specific radioactivity 1.4 TBq/mmol) and 0.1 μM SCH 23390 (total binding) or a) with the addition of 50 nM spiperone (non-specific binding) or b) with test substance. The mixtures were prepared in triplicate.
After the incubation (40 min at 25° C.) the mixtures were filtered through glass fiber filters (Whatman GF/B) and briefly washed with ice-cold washing buffer (Tris-HCl, pH 7.4). The radioactivity retained on the filters was determined by liquid scintillation counting. The non-specific binding comprised about 40-50% of the total binding.
The evaluation of the competition plots and the determination of the dissociation constant took place by iterative non-linear regression analysis based on the "ligand" program (Muson and Rodbard: Anal. Biochem. 107 (1980) 220).
Affinity of the test substances for the dopamine D2 receptor

SMILES | Ki [nM]
Nc1nnc(SCCCN2CC=C(c3ccccc3)CC2)s1 [Example 4, 2-Amino-5-[3-(4-phenyl-1,2,3,6-tetrahydropyridyl)-propylthio]-1,3,4-thiadiazole hydrochloride] | 6
Nc1nnc(SCCN2CC=C(c3ccccc3)CC2)s1 [Example 3, 2-Amino-5-[2-(4-phenyl-1,2,3,6-tetrahydropyridyl)-ethylthio]-1,3,4-thiadiazole dihydrochloride] | 12

Same assay, conditions: rat striatal membranes, 1 nM 3H-ADTN, 0.1 μM SCH 23390, 40 min at 25° C., pH 7.4; non-specific binding with 50 nM spiperone; read-out: Ki (affinity of the test substances for the dopamine D2 receptor)

Ki [nM] | SMILES
125 | Nc1nnc(SCCCN2CCN(c3ccc(F)cc3)CC2)s1 [Example 1, 2-Amino-5-[3-(4-fluorophenylpiperazinyl)propylthio]-1,3,4-thiadiazole dihydrochloride]
15 | CCOc1ccccc1N1CCN(CCSc2nnc(N)s2)CC1 [Example 11, 2-Amino-5-[2-(4-(2-ethoxyphenyl)piperazinyl)ethylthio]-1,3,4-thiadiazole hydrochloride]
36 | Cc1cccc(N2CCN(CCCSc3nnc(N)s3)CC2)c1 [Example 14, 2-Amino-5-[3-(4-(3-methylphenyl)piperazinyl)propylthio]-1,3,4-thiadiazole hydrochloride]

The remaining lines, values behind:

SMILES | Ki [nM]
Nc1nnc(SCCN2CCC(c3ccccc3)CC2)s1 [Example 8, 2-Amino-5-[2-(4-phenylpiperidinyl)ethylthio]-1,3,4-thiadiazole hydrochloride] | 45
CCCN(CCCSc1nnc(N)s1)CCc1ccccc1 [Example 9, 2-Amino-5-[3-(2-phenylethyl-n-propylamino)propylthio]-1,3,4-thiadiazole tartrate] | 45
